Results as given in paper PMC3222680 (PLoS ONE, 2011).

Columns and labels:
Assay type in all cases: cell-based
αK24′A α-βWT GlyR = molecular target: T1, αK24′A α-βWT GlyR (Homo sapiens, UniProt P23415+P48167, K304A)
T1 construct: The α R218-Q219 and β R242-Q243 are also the joining sites for chimeras constructed between the ECD and TMD; expressed in transfected cells; host or cells: HEK293 (ATCC)
Procedure: (§1) The human GlyR α1 and β subunit cDNAs were subcloned into the pcDNA3.1zeo+ (Invitrogen) or pGEMHE [44] plasmid vectors for expression in HEK293 cells or Xenopus oocytes, respectively. Site-directed mutagenesis and chimera construction were performed using the QuickChange (Stratagene, La Jolla, CA, USA) mutagenesis and multiple-template-based sequential PCR protocols, respectively.
(§2) The effects of the hyperekplexia-mimicking mutations, K24′A, V25′A and Y27′A, were examined on GlyRs expressed in HEK293 cells (ATCC). Details of the HEK293 cell culture, GlyR expression and electrophysiological recording of the HEK293 cells are described elsewhere. Briefly, HEK293 cells were maintained in DMEM supplemented with 10% fetal bovine serum. Cells were transfected using a calcium phosphate precipitation protocol. When co-transfecting the α1 together with the β or any other chimera subunits, their respective cDNAs were combined in a ratio of 1∶10. In addition, the pEGFP-N1 (Clontech) was co-transfected to facilitate identifying the transfected cells. […] Cells were treated with external Ringer's solution and internal CsCl solution [30]. Cells were voltage-clamped at −40 mV. When the heteromeric GlyRs were expressed, the picrotoxin sensitivity was tested to confirm that the majority of receptors are heteromers, [30].
(§3) Results are expressed as mean±standard error of the mean of three or more independent experiments. […] Statistical significance was determined using the Student's t-test.

αV25′A αB-βWT GlyR = molecular target: T2, αV25′A αB-βWT GlyR (Homo sapiens, UniProt P23415+P48167, A80Q/V305A)
T2 construct: expressed in transfected cells; host or cells: HEK293 (ATCC)
T2 sequence (P23415 29-449 isoform P23415-2 V305A): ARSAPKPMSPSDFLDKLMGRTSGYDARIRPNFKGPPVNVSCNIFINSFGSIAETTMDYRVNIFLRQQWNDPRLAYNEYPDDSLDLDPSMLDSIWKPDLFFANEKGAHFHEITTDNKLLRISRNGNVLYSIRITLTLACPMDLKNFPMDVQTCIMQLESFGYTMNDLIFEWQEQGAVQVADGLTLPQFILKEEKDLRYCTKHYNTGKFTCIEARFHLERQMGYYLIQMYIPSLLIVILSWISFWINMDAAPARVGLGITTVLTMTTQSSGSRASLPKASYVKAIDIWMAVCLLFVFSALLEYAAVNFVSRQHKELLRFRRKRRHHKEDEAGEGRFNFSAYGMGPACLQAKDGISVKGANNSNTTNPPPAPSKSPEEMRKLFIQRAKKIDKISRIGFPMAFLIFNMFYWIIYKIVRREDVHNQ
T2 sequence (P23415+P48167 fused with the stated changes): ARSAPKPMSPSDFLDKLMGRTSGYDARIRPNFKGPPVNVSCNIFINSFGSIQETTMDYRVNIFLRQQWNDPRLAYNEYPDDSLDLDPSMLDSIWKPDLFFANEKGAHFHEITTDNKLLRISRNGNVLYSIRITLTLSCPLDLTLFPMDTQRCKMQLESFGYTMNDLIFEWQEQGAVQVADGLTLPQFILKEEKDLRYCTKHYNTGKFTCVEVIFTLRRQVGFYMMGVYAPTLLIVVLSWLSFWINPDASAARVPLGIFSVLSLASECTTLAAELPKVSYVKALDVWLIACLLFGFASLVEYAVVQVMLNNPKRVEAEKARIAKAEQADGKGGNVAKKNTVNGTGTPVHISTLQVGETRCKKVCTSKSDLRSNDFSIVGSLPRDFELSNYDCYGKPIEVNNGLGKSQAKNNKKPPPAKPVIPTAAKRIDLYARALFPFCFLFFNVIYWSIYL
Procedure: as §1, §2, §3

αV25′A αT-βWT GlyR = molecular target: T3, αV25′A αT-βWT GlyR (Homo sapiens, UniProt P23415+P48167, Q95A/V305A)
T3 construct: expressed in transfected cells; host or cells: HEK293 (ATCC)
T3 sequence (P23415 29-449 isoform P23415-2 V305A): as the sequence (P23415 29-449 isoform P23415-2 V305A) above
T3 sequence (P48167 23-497 Q95A/S182A/L185M/T188K/L189N/T194V/R196T/K198I/V256I/V258A/I259R/T261H/R263E): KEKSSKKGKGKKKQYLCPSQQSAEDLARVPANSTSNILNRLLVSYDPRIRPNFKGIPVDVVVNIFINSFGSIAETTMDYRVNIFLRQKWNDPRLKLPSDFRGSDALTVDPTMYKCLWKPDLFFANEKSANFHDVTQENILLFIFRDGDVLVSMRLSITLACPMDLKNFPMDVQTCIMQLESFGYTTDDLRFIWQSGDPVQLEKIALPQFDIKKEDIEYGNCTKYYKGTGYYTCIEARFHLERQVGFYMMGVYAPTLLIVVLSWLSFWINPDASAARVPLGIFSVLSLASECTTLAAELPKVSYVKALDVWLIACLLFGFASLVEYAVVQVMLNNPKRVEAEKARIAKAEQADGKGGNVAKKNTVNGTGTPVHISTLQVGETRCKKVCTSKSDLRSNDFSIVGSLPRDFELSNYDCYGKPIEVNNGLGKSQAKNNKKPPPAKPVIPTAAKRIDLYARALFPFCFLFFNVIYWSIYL
Procedure: as §1, §2, §3

αWT α-βY27′A GlyR = molecular target: T4, αWT α-βY27′A GlyR (Homo sapiens, UniProt P23415+P48167, A277S/G282P/I253M/I257A/I264V/I268L/L252M/M248V/M255V/M274P/P278A/Q254G/S259T/Y250F/Y325A)
T4 construct: The α R218-Q219 and β R242-Q243 are also the joining sites for chimeras constructed between the ECD and TMD; expressed in transfected cells; host or cells: HEK293 cells (ATCC), pcDNA3.1zeo+
T4 sequence (P23415+P48167 fused with the stated changes, one chain of several): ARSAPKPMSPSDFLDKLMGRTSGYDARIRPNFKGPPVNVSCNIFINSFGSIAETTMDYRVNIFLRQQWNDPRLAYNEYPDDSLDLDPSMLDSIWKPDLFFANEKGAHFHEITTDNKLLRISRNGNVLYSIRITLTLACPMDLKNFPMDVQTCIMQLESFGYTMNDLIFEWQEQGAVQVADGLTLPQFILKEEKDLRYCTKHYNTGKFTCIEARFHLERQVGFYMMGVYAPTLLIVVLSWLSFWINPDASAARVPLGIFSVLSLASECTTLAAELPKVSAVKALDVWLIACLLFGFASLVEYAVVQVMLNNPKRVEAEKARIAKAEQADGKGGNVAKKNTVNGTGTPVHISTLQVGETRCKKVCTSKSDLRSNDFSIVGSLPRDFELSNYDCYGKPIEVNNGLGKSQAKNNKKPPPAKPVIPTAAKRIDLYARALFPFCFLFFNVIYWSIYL
Procedure: as §1, §2, §3

αWT αB-βWT GlyR = molecular target: T5, αWT αB-βWT GlyR (Homo sapiens, UniProt P23415+P48167, A165S/A240V/A277S/A316I/A325S/A80Q/DEL290-297/E245R/G282P/H243T/I181K/I238V/I253M/I257A/I264V/I268L/I311L/I313V/INS301ECTTLAAE/K171T/L252M/L327V/M168L/M248V/M255V/M274P/M315L/N172L/P278A/Q254G/R241I/R299L/S259T/S324A/T179R/T286F/T287S/V177T/V317A/V322G/Y250F)
T5 construct: expressed in transfected cells; host or cells: HEK293 (ATCC)
Procedure: as §1, §2, §3

αWT βV25′A GlyR = molecular target: T6, αWT βV25′A GlyR (Homo sapiens, UniProt P23415+P48167, V323A)
T6 construct: expressed in transfected cells; host or cells: HEK293 (ATCC)
T6 sequence (P48167 23-497 V323A, one chain of several): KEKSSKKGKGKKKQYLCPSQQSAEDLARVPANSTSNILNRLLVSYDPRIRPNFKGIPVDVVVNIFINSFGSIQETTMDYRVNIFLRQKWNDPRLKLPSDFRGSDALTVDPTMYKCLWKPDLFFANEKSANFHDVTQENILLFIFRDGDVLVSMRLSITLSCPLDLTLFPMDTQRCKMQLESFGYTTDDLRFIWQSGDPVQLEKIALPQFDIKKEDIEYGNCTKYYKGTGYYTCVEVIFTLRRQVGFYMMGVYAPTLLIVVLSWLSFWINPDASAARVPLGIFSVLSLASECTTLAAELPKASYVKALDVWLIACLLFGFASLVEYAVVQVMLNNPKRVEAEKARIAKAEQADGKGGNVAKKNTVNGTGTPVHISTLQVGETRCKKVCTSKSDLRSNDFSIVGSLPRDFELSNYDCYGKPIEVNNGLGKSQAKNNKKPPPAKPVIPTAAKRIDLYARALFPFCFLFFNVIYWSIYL
Procedure: as §1, §2, §3

αWT βY27′A GlyR = molecular target: T7, αWT βY27′A GlyR (Homo sapiens, UniProt P23415+P48167, Y325A)
T7 construct: expressed in transfected cells; host or cells: HEK293 (ATCC)
T7 sequence (P48167 23-497 Y325A, one chain of several): as the sequence (P48167 23-497 V323A, one chain of several) above, with A301V, Y303A counted along it
Procedure: as §1, §2, §3

αWT β-αK24′A GlyR = molecular target: T8, αWT β-αK24′A GlyR (Homo sapiens, UniProt P23415+P48167, A275I/A296P/F268Y/G272Q/K304A/L286I/M270L/M271I/P292M/P300G/S295A/T277S/V266M/V273M/V282I)
T8 construct: The α R218-Q219 and β R242-Q243 are also the joining sites for chimeras constructed between the ECD and TMD; expressed in transfected cells; host or cells: HEK293 (ATCC)
T8 sequence (P23415 29-449 isoform P23415-2): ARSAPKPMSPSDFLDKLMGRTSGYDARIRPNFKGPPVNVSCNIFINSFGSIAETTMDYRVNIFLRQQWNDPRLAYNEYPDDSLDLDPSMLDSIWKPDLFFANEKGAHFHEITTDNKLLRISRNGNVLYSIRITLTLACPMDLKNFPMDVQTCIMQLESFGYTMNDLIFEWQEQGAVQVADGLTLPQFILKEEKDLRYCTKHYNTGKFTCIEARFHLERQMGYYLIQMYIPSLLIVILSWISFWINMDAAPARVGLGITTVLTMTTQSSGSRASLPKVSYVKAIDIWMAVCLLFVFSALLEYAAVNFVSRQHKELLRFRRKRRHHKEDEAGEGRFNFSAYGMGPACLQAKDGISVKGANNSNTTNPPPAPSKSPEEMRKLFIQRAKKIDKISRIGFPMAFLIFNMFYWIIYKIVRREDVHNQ
T8 sequence (P48167+P23415 with tags, fused parts or gaps P48167:V266M/P48167:F268Y/P48167:M270L/P48167:M271I/P48167:G272Q/P48167:V273M/P48167:A275I/P48167:T277S/P48167:V282I/P48167:L286I/P48167:P292M/P48167:S295A/P48167:A296P/P48167:P300G/P23415:K304A): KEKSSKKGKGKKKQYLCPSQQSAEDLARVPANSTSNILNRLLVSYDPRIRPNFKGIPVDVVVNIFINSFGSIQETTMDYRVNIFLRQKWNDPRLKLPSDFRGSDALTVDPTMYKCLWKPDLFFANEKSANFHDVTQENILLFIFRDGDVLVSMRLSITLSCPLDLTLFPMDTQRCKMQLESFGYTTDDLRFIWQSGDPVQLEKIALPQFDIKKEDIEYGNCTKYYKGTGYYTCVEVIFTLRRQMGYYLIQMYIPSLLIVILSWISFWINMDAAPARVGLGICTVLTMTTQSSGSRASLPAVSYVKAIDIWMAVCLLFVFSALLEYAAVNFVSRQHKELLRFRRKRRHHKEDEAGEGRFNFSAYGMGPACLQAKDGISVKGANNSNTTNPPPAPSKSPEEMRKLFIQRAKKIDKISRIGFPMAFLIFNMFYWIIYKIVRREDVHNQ
Procedure: as §1
For the β-α chimeras used for determining the effect of hyperekplexia-mimicking mutations on α1 β GlyR channel function, the Thr at the M2 6′ position was replaced by a Cys. […] Through such a modification, picrotoxin resistance was used to distinguish the heteromeric α1 β-α GlyR from the homomeric α1 GlyR when the α1 and β-α subunits were co-expressed.
as §2, §3

[1] = αK24′A α-βWT, HEK293, with glycine at EC50 of α1 homomer
[2] = αV25′A αB-βWT, HEK293, with glycine at EC50 of α1 homomer
[3] = αV25′A αT-βWT, HEK293, with glycine at EC50 of α1 homomer
[4] = αWT α-βY27′A, HEK293, with glycine at EC50 of α1 homomer
[5] = αWT αB-βWT, HEK293, with glycine at EC50 of α1 homomer
[6] = αWT βV25′A, HEK293, with glycine at EC50 of α1 homomer
[7] = αWT βY27′A, HEK293, with glycine at EC50 of α1 homomer
[8] = αWT β-αK24′A, HEK293, with glycine at EC50 of α1 homomer

T1 sequence (P23415 29-449 isoform P23415-2 K304A): as the sequence (P23415 29-449 isoform P23415-2 V305A) above, with K276A, A277V counted along it
T1 sequence (P23415+P48167 fused with the stated changes): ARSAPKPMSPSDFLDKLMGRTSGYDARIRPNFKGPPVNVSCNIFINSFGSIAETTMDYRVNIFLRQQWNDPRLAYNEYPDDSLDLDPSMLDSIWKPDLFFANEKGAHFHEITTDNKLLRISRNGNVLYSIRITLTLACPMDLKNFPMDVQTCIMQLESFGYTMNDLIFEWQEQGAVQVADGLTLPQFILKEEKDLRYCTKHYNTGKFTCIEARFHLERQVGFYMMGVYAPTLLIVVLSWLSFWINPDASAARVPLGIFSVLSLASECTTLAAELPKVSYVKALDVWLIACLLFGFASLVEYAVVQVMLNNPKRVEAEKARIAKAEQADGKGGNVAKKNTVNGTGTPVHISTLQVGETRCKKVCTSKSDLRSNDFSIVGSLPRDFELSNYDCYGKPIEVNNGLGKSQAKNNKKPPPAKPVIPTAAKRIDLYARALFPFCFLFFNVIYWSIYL

In the case of picrotoxin [PTX], the “10uM PTX inhibition (%)” value (αK24′A α-βWT GlyR; [1]) is reported as 4.8±0.7%, the “100uM PTX inhibition (%)” value (αK24′A α-βWT GlyR; [1]) is reported as 26±5% and the “10uM PTX inhibition (%)” value (αV25′A αB-βWT GlyR; [2]) is reported as 4.8±0.6%. For the same compound, the “100uM PTX inhibition (%)” value (αV25′A αB-βWT GlyR; [2]) was 27±2%, the “10uM PTX inhibition (%)” value (αV25′A αT-βWT GlyR; [3]) was 3.7±1.6% and the “100uM PTX inhibition (%)” value (αV25′A αT-βWT GlyR; [3]) was 25±4%. For the same compound, the “10uM PTX inhibition (%)” value (αWT α-βY27′A GlyR; [4]) was 4.9±0.3%, the “100uM PTX inhibition (%)” value (αWT α-βY27′A GlyR; [4]) was 39±5% and the “10uM PTX inhibition (%)” value (αWT αB-βWT GlyR; [5]) was 4.8±0.9%. For the same compound, the “100uM PTX inhibition (%)” value (αWT αB-βWT GlyR; [5]) was 33±4%, the “10uM PTX inhibition (%)” value (αWT βV25′A GlyR; [6]) was 5.7±2.2% and the “100uM PTX inhibition (%)” value (αWT βV25′A GlyR; [6]) was 36±7%. For the same compound, the “10uM PTX inhibition (%)” value (αWT βY27′A GlyR; [7]) was 6.3±0.3%, the “100uM PTX inhibition (%)” value (αWT βY27′A GlyR; [7]) was 42±2% and the “10uM PTX inhibition (%)” value (αWT β-αK24′A GlyR; [8]) was 12.0±3.0%. The “100uM PTX inhibition (%)” value (αWT β-αK24′A GlyR; [8]) was 31±3%.
Compound `NCC(=O)O` [glycine] has an Imax (αK24′A α-βWT GlyR) of 7.2±0.9 nA, a nH (αK24′A α-βWT GlyR) of 1.0±0.1 and an Imax (αV25′A αB-βWT GlyR) of 5.5±0.9 nA. It also gave a nH (αV25′A αB-βWT GlyR) of 1.1±0.0, an Imax (αV25′A αT-βWT GlyR) of 6.0±1.7 nA and a nH (αV25′A αT-βWT GlyR) of 1.4±0.2. For the same compound, the Imax (αWT α-βY27′A GlyR) was 6.9±3.1 nA, the nH (αWT α-βY27′A GlyR) was 1.3±0.3 and the Imax (αWT αB-βWT GlyR) was 8.6±1.6 nA. It also gave a nH (αWT αB-βWT GlyR) of 1.8±0.4, an Imax (αWT βV25′A GlyR) of 7.7±0.8 nA and a nH (αWT βV25′A GlyR) of 2.0±0.6. It also gave an Imax (αWT βY27′A GlyR) of 8.0±1.3 nA, a nH (αWT βY27′A GlyR) of 2.4±0.1 and an Imax (αWT β-αK24′A GlyR) of 5.9±1.7 nA. For the same compound, the nH (αWT β-αK24′A GlyR) was 1.5±0.3.
